Assay: pKa of photoactive compound in ground and excited state
Type: physicochemical
Description: The operating range of the photoactive compound may be related to the difference in pKa between the excited and ground states of the photoactive molecule. The operating range may be ascertained by determining the pKa of the photoactive compound in its ground state (e.g. the base or relatively weak acid form) and the pKa of the compound in its excited state (e.g. the relatively strong acidic form). The difference in pKa between these two forms therefore defines the operating range of the photoactive compound. […] The requirement to select an amine for use with a photochromic molecule that results in an absorbent pH within the working range of the photochromic molecule can be illustrated by calculation. […] The pH of a mixture containing 0.5 M amine and 0.25 M MEH (ground state) as a function of absorbed CO2 and 0.5 M amine and 0.25 spiropyran (excited state) as function of absorbed CO2 was calculated using the published method Puxty, […]. Int. […]. Gas Control, 17 (2013), 215-224. The difference in pH of the absorbent at each concentration of absorbed CO2 is indicative of the ability of excitation to remove CO2 from the absorbent. […] Chem. Thermodynamics, 51 (2012), 97-102 and Fernandes, D., et al., J. Chem. Thermodynamics, 54 (2012), 183-191.

SMILES | pKa (aqueous solution, ground state, aqueous solution at room temperature) | pKa (excited state) | pKa (ground state)
CC1(C)C(/C=C/c2ccccc2O)=[N+](CCCS(=O)(=O)[O-])c2ccccc21 [MEH] | 7.8 |  | 
O=[N+]([O-])CCc1c(O)ccc2ccccc12 [1-(2-nitroethyl)-2-naphthol] |  | 1.9 | 9.7
